From patent US12319651B2, “Crystalline forms and methods of producing crystalline forms of a compound” (priority 2019, dated 2025)

What was measured:
[1] = Measurement of the approximate solubility (visual dissolution in solvent aliquots); assay type: physicochemical; conditions: thermodynamic from solid
Procedure: Aliquots of various solvents were added to measured amounts of compound with agitation (typically sonication) at ambient or elevated temperatures until complete dissolution was achieved, as judged by visual observation.
The approximate solubility at ambient temperature must be known in order to carry out systematic crystallization experiments.

[2] = Dynamic vapor sorption (moisture sorption/desorption); assay type: physicochemical; conditions: for Hygroscopicity: automated vapor sorption/desorption analysis, 5% to 95% RH
Procedure: Moisture sorption/desorption data were collected on a VTI SGA-100 Vapor Sorption Analyzer. Sorption and desorption data were collected over a range of 5% to 95% relative humidity (RH) at 10% RH intervals under an nitrogen purge. Samples were not dried prior to analysis. Equilibrium criteria used for analysis were less than 0.0100% weight change in 5 minutes, with a maximum equilibration time of 3 hours if the weight criterion was not met. Data were not corrected for the initial moisture content of the samples. NaCl and PVP were used as calibration standards.

[3] = assay type: physicochemical
Procedure: The starting crystal Form was heated to 120° C. and the resulting material was analyzed by XRPD.
The XRPD results of crystalline Form E (FIG. 2) show good crystallinity. […] (FIG. 6). […] The XRPD results of crystalline Forms E+C (FIG. 3) show good crystallinity. Differential scanning calorimetry results for crystalline Forms E+C were very similar to that of Form E (FIG. 7). […] Form conversion was complete by 125° C. in the solid state.

[4] = Interconversion slurries of crystal forms; assay type: physicochemical; conditions: for Relationship of forms C and E: from DSC data and interconversion results, transition temperature less than ambient
From the text: Crystal forms of the compound of Formula (I) were weighed out in approximately equal amounts and combined as desired. Aliquots of saturated solutions of compound in various solvents were filtered (0.2-μm nylon filter) into vials containing solid mixtures such that undissolved solids were present. The mixture was then agitated by either loading it onto an orbit shaker or adding a cross-shaped stir bar and allowing the mixture to stir in a sealed vial at stated conditions. The solids were isolated by vacuum filtration and analyzed.
Interconversion slurries were conducted as individual pairings between the E+C mixture and Form E material and between forms C and E. The experiments were carried out in cyclohexane and acetone:water 20:80, at room temperature for 7 days. Additional slurries were set up in toluene at room temperature for 1 day and at approximately 5° C. for 2 days.
A second set of interconversion slurries was conducted in which all unique patterns were slurried together at 50° C. in cyclohexane and ethanol:water 50:50. […]

With `N#Cc1ccc(N2CCC[C@@H]2C(O)C(F)(F)F)cc1C(F)(F)F` (stereo partly drawn) [Compound of Formula (I)] as the compound, how does the solubility ([1]; aqueous with cosolvent or surfactant or cyclodextrin, ambient, 1,4-dioxane/water 20:80 v/v) read?
The solubility was less than 2 mg/mL.

And the solubility ([1]; aqueous with cosolvent or surfactant or cyclodextrin, ambient, 1-propanol/water 20:80 v/v)?
The solubility was less than 2 mg/mL.

And the solubility ([1]; aqueous with cosolvent or surfactant or cyclodextrin, ambient, 2,2,2-trifluoroethanol/water 20:80 v/v)?
The solubility was less than 2 mg/mL.

And the solubility ([1]; aqueous with cosolvent or surfactant or cyclodextrin, ambient, acetone/water 20:80 v/v)?
Its solubility is less than 2 mg/mL.

And the solubility ([1]; aqueous with cosolvent or surfactant or cyclodextrin, ambient, acetone/water 50:50 v/v)?
The solubility was 9 mg/mL.

And the solubility ([1]; aqueous with cosolvent or surfactant or cyclodextrin, ambient, acetonitrile/water 20:80 v/v)?
The solubility was less than 2 mg/mL.

What about the solubility ([1]; aqueous with cosolvent or surfactant or cyclodextrin, ambient, ethanol/water 20:80 v/v) of the same compound?
Its solubility is less than 2 mg/mL.

What about the solubility ([1]; aqueous with cosolvent or surfactant or cyclodextrin, ambient, hexafluoroisopropanol/water 20:80 v/v) of the same compound?
Its solubility is less than 2 mg/mL.

And the solubility ([1]; aqueous with cosolvent or surfactant or cyclodextrin, ambient, isopropanol/water 20:80 v/v)?
Its solubility is less than 2 mg/mL.

And the solubility ([1]; aqueous with cosolvent or surfactant or cyclodextrin, ambient, methanol/water 20:80 v/v)?
The solubility was less than 2 mg/mL.

And the solubility ([1]; aqueous with cosolvent or surfactant or cyclodextrin, ambient, tetrahydrofuran/water 20:80 v/v)?
Its solubility is less than 2 mg/mL.

And the solubility ([1]; organic solvent or mixture, ambient, 1,4-dioxane)?
Its solubility is greater than 111 mg/mL.

And the solubility ([1]; organic solvent or mixture, ambient, 1-butanol)?
The solubility was 37 mg/mL.

What about the solubility ([1]; organic solvent or mixture, ambient, 1-propanol) of the same compound?
Its solubility is 55 mg/mL.

What about the solubility ([1]; organic solvent or mixture, ambient, 2,2,2-trifluoroethanol) of the same compound?
The solubility was 51 mg/mL.

What about the solubility ([1]; organic solvent or mixture, ambient, 2-butanone) of the same compound?
The solubility was greater than 107 mg/mL.

What about the solubility ([1]; organic solvent or mixture, ambient, acetone) of the same compound?
The solubility was greater than 112 mg/mL.

And the solubility ([1]; organic solvent or mixture, ambient, acetonitrile)?
The solubility was greater than 110 mg/mL.

What about the solubility ([1]; organic solvent or mixture, ambient, chloroform) of the same compound?
Its solubility is 37 mg/mL.

And the solubility ([1]; organic solvent or mixture, ambient, cyclohexane)?
The solubility was less than 2 mg/mL.

And the solubility ([1]; organic solvent or mixture, ambient, dichloromethane)?
Its solubility is 37 mg/mL.

What about the solubility ([1]; organic solvent or mixture, ambient, diethyl ether) of the same compound?
The solubility was 58 mg/mL.

What about the solubility ([1]; organic solvent or mixture, ambient, ethanol) of the same compound?
The solubility was greater than 104 mg/mL.

What about the solubility ([1]; organic solvent or mixture, ambient, ethyl acetate) of the same compound?
Its solubility is greater than 108 mg/mL.

And the solubility ([1]; organic solvent or mixture, ambient, hexafluoroisopropanol)?
The solubility was greater than 106 mg/mL.

And the solubility ([1]; organic solvent or mixture, ambient, hexanes)?
The solubility was less than 2 mg/mL.

What about the solubility ([1]; organic solvent or mixture, ambient, isopropanol) of the same compound?
The solubility was greater than 102 mg/mL.

And the solubility ([1]; organic solvent or mixture, ambient, isopropyl ether)?
The solubility was 55 mg/mL.

And the solubility ([1]; organic solvent or mixture, ambient, methanol)?
The solubility was greater than 116 mg/mL.

What about the solubility ([1]; organic solvent or mixture, ambient, methyl isobutyl ketone) of the same compound?
Its solubility is greater than 100 mg/mL.

And the solubility ([1]; organic solvent or mixture, ambient, tert-butyl methyl ether)?
The solubility was greater than 111 mg/mL.

What about the solubility ([1]; organic solvent or mixture, ambient, tetrahydrofuran) of the same compound?
The solubility was greater than 102 mg/mL.

What about the solubility ([1]; organic solvent or mixture, ambient, toluene) of the same compound?
Its solubility is 15 mg/mL.

And the solubility ([1]; ambient, water)?
The solubility was less than 2 mg/mL.

For `N#Cc1ccc(N2CCC[C@@H]2C(O)C(F)(F)F)cc1C(F)(F)F` (stereo partly drawn) [Form B], which Hydrate formation [2] is on record?
Its Hydrate formation is “does not show any evidence of hydrate formation”.

What about the Stability over humidity [2] of the same compound?
Its Stability over humidity is “stable over a wide range of humidity”.

And the “Temperature of likely form transformation upon heating” value [3]?
The value was “approximately 150 °C”.

Which Hydrate formation [2] does the source give for `N#Cc1ccc(N2CCC[C@@H]2C(O)C(F)(F)F)cc1C(F)(F)F` (stereo partly drawn) [Form C] here?
Its Hydrate formation is “does not show any evidence of hydrate formation”.

What about the Stability over humidity [2] of the same compound?
The Stability over humidity was “stable over a wide range of humidity”.

What about the Water uptake ([2]; DVS, FIG. 9) of the same compound?
The Water uptake was “negligible water uptake”.

What about the Hygroscopicity [2] of the same compound?
The Hygroscopicity was “non-hygroscopic”.

And the “Most stable form in slurry of all forms” value ([4]; 50° C., 7 days, cyclohexane and ethanol:water 50:50)?
The value was “most stable form”.

And the “Thermodynamic stability among crystal forms” value ([4]; cyclohexane, acetone:water 20:80, toluene at ambient temperature, ethanol:water 50:50 at approximately 50° C.)?
The value was “most thermodynamically stable form”.

And the “Relationship of forms C and E” value [4]?
Its value is “enantiotropic”.

What about the “Form stability upon heating and cooling” value ([3]; heating to 150° C. and cooling down to ambient temperature) of the same compound?
Its value is “remained stable”.

And the “Relative thermodynamic stability from heating study” value ([3]; starting crystal form heated to 120° C., XRPD)?
The value was “thermodynamically more stable crystal form”.

With `N#Cc1ccc(N2CCC[C@@H]2C(O)C(F)(F)F)cc1C(F)(F)F` (stereo partly drawn) [Form E + C] as the compound, how does the Hygroscopicity ([2]; listed as E+C mixture) read?
The Hygroscopicity was “slightly hygroscopic”.

And the “XRPD Result after heating” value ([3]; heated to 120° C.)?
Its value is “Form C”.

Which Stability over humidity [2] does the source give for `N#Cc1ccc(N2CCC[C@@H]2C(O)C(F)(F)F)cc1C(F)(F)F` (stereo partly drawn) [Form E] here?
Its Stability over humidity is “stable over a wide range of humidity”.

What about the Hygroscopicity [2] of the same compound?
The Hygroscopicity was “slightly hygroscopic”.

And the “Relationship of forms C and E” value [4]?
Its value is “enantiotropic”.

What about the “Most stable form in slurry” value ([4]; toluene at approximately 5° C.) of the same compound?
Its value is “most stable form”.

And the “Temperature at which form conversion was complete” value ([3]; VT-XRPD, solid state)?
The value was no more than 125 °C.

What about the “Temperature of conversion to Form C upon heating” value ([3]; VT-XRPD, mixture of forms E+C observed at this temperature) of the same compound?
The value was 115 °C.
